Where two headings read alike, the source gives them in different places.
How the values were obtained:
TNFα and IL-8 = conditions: independent anti-inflammatory effects; cited from earlier work
[1] = system: child, diagnosed with ASD with frequent anxiety and episodes of self harm; assay: Case report: child diagnosed with ASD given oral 3′-sialyllactose daily; format: in vivo, human; conditions: 40-50 mg/kg per day orally once a day
Description: A child, diagnosed with ASD with frequent anxiety and episodes of self harm, was given 40-50 mg/kg per day 3′-sialyllactose (Glycom, food grade, GRAS) dosed orally once a day.

[2] = system: murine and human derived macrophages stimulated with LPS; conditions: cited from earlier work; for IL-1β, IL-2, IL-4, IL-6, IL-12, IFNγ or TNF-α: in vitro

## CC1O[C@@H](OC2[C@H](O[C@H]3C(O)C(O)C(O)O[C@H]3CO)OC(CO)[C@H](O)[C@@H]2O)C(O)[C@@H](O)[C@@H]1O (some centres unmarked) [2′fucosyllactose, 2′-fucosyllactose]
TNFα and IL-8
  TNFα and IL-8: reduction

## CC(=O)N[C@H]1C([C@H](O)[C@H](O)CO)O[C@@](O[C@@H]2C(O)[C@H](O[C@@H]3C(CO)O[C@@H](O)C(O)[C@H]3O)OC(CO)[C@@H]2O)(C(=O)O)C[C@H]1O (some centres unmarked) [3′-sialyllactose]
[1]; measured by parent before and after treatment
  heart rate: reduction in heart rate
[1]; noted by parent
  anxiety: significant decrease
  self-harm episodes: significant decrease
[2]
  PDL1, COX2 and select chemokines such as CCL2 (MCP1) and CCL5: reduce
[2]; listed as 3′-SL
  IL-1β, IL-2, IL-4, IL-6, IL-12, IFNγ or TNF-α: more significant reductions
[2]; listed as 3′SL
  IL-1β, IL-2, IL-4, IL-6, IL-12, IFNγ or TNF-α: reductions

## CC(=O)N[C@H]1C([C@H](O)[C@H](O)CO)O[C@@](OCC2O[C@@H](O[C@@H]3C(CO)O[C@@H](O)C(O)[C@H]3O)C(O)[C@@H](O)[C@H]2O)(C(=O)O)C[C@H]1O (some centres unmarked) [6′SL, 6′-sialyllactose]
[2]
  IL-1β, IL-2, IL-4, IL-6, IL-12, IFNγ or TNF-α: reductions
